Measured values published in PMC6930638, “The Masked Polar Group Incorporation (MPGI) Strategy in Drug Design: Effects of Nitrogen Substitutions on Combretastatin and Isocombretastatin Tubulin Inhibitors” (Molecules, 2019).
Read-outs that look alike come from different tables or passages of the source. Blank lines part the entries; values can stand above or below the molecule they belong to.

How the values were obtained:
[1] = system: Bovine brain microtubule protein (MTP); design: method as in PMID 26092446; settings: comparison values in text; read-out: TPI IC50; cited from earlier work
[2] = system: rat primary pancreatic cells; test: Toxicity against rat primary pancreatic cells (MTT); settings: 7 h
Experimental: The toxicity of the compounds against rat primary pancreatic cells was evaluated by the MTT protocol (Table 2). […] Sodium taurocholate (NaTc) was also used at high concentrations as a model of acute pancreatitis in vitro.
Rat primary pancreatic cells were isolated as previously described. Afterwards, pancreatic cells were resuspended in Na-HEPES solution (pH 7.4) containing 14 mM glucose, 1% essential amino acid mixture, 1% (w/v) BSA, 0.01% (w/v) STI, 0.5 mM CaCl2 and incubated (5% CO2, at 37 °C) for 7 h in the absence (non-treated control) or the presence of compounds at different concentrations. After the treatment, cells were incubated (5% CO2, at 37 °C) with 0.5 mg/mL MTT for 2 h and the formazan crystals were solubilized with DMSO (v/v). The optical density was read at 570 nm with a reference wavelength of 630 nm. Non-treated cell viability was set as 100%.

[3] = system: Bovine brain microtubule protein (MTP); test: Tubulin polymerization inhibition assay (turbidimetry); type: biochemical; settings: 1.5 mg/mL MTP; IC50 calculated only if more than 50% inhibition at 20 µM; read-out: TPI IC50
[4] = system: HT-29 colon adenocarcinoma; test: MTT cell antiproliferative assay, HT-29 (without or with verapamil); type: cell-based, human
Experimental: The in vitro antiproliferative activity of the synthesized compounds was evaluated by a colorimetric reaction, using the MTT reagent. They were tested against three different human tumor cell lines: HeLa cervix epithelioid carcinoma, HT-29 colon adenocarcinoma, and MCF-7 breast adenocarcinoma. […] Moving the alkylamino substituent from a para to a meta position with respect to the bridge results in potency reduction, except for the phenstatin analogue 1f. However, the introduction of a nitrogen atom to form 2-dimethylaminopyridine derivatives entails a loss of activity, both for phenstatin analogues (1b, 2b), while for isocombretastatins, it only involves a 2–3 times potency decrease (3b). For combretastatins, it implies an improvement in the cytotoxicity values down to tenths of nanomolar (8b). […] On the other hand, the best 2-dimethylaminopyridine was combretastatin 8b. All ammonium salts derivatives were not cytotoxic at micromolar concentrations.
As observed in Table 1, there are no significant changes in the IC50 values for most compounds, except for combretastatins 8a and 8i.
Acquired resistance to antitumor drugs is one of the more important problems of chemotherapy, also affecting tubulin-targeting drugs. In order to ascertain the impact of multidrug resistance phenotypes on the action of the compounds, we have measured the cell proliferation inhibitory activity of HT-29 cells in the presence of verapamil, a known P-glycoprotein 1/multidrug resistance protein 1 (MDR1) inhibitor at a concentration of 10 µM, not affecting cell proliferation. […] Except for the combretastatin analogues 8a and 8i, the affected drugs are all pyridine drugs.
HeLa (human cervical carcinoma) and MCF-7 (human breast carcinoma) cell lines were cultured in Dulbecco’s Modified Eagles Medium (DMEM) supplemented with 2 mM L-glutamine (Lonza-Cambrex, Karlskoga, Sweden), 10% (v/v) heat inactivated fetal bovine serum (HIFBS) (Lonza-Cambrex) and 100 μg/mL streptomycin-100 IU/mL penicillin (Lonza-Cambrex) at 37 °C in humidified 95% air and 5% CO2. HT-29 (human colon carcinoma) cells were cultured at 37 °C in complete RPMI 1640 medium containing 2 mM L-glutamine, 10% (v/v) HIFBS and 100 μg/mL streptomycin-100 IU/mL penicillin in humidified 95% air and 5% CO2 atmosphere.
The effect of the different compounds on the proliferation of human cell lines was determined by using the MTT (3-[4,5-dimethylthiazol-2-yl]-2,5-diphenyltetrazolium bromide) reagent (MTT Thiazolyl Blue Tetrazolium Bromide, Sigma-Aldrich, St. Louis, MO, USA) dissolved in PBS 5 mg/mL. Cell viability was evaluated seeding 100 µL of cells in exponential growth phase with appropriate cell line concentration (1.5 × 10^4 HeLa and MCF-7 cells/mL and 3 × 10^4 HT-29 cells/mL) in complete medium in 96-well plates at 37 °C and 5% CO2. After 24 h incubation to allow cells to attach to the plates the ligands were added at different concentrations from 10^−5 to 10^−9 M. The effect on the proliferation was evaluated 72 h post-treatment by adding the MTT reagent (10 µL/well) to a final concentration of 0.5 mg/mL and the plate was further incubated for another 3 h. After this period, the supernatant was removed, the MTT violet crystals formed on the bottom of each well were dissolved in DMSO (100 µL/well) and subsequently, the absorbance of the color complex was read at 570 nm using a multi-well plate reader. Compounds were dissolved in dimethyl sulfoxide (DMSO) and the final solvent concentrations never exceeded 0.5% (v/v). The control wells included treated cells with 0.5% (v/v) DMSO and the positive control. Measurements were performed in triplicate, and each experiment was repeated three times. […] Nonlinear curves fitting the experimental data were carried out for each compound.

[5] = system: MCF-7 breast adenocarcinoma; test: MTT cell antiproliferative assay, MCF-7; type: cell-based; settings: Homo sapiens, MCF7, 72 h
[6] = system: HeLa cervix epithelioid carcinoma; test: MTT cell antiproliferative assay, HeLa; type: cell-based; settings: Homo sapiens, 72 h
[7] = system: HeLa, HT-29 and MCF-7 human tumor cell lines; test: Antiproliferative activity over the three human tumor cell lines (MTT); type: cell-based; settings: Homo sapiens, range over the cell lines, Table S1; read-out: Cytotoxicity range (range of antiproliferative IC50 values)

Compound: COc1ccc(/C=C\c2cc(OC)c(OC)c(OC)c2)cc1O [CA-4, Combretastatin A4, reference compound]
IC50 [1]: 1000 to 4000 nM

Compound: COc1cc([C@@H]2c3cc4c(cc3[C@@H](O[C@@H]3O[C@@H]5CO[C@@H](C)O[C@H]5[C@H](O)[C@H]3O)[C@H]3COC(=O)[C@H]23)OCO4)cc(OC)c1O [Etoposide, etoposide, reference compound]
live cells with respect to the non-treated control (means ± S.E.M.) ([2]; rat, 0.05 µM, pH 7.4): 89.87 ± 11.80%

Compound: C[C@H](CCC(=O)NCCS(=O)(=O)O)[C@H]1CC[C@H]2[C@@H]3[C@H](O)C[C@@H]4C[C@H](O)CC[C@]4(C)[C@H]3C[C@H](O)[C@]12C [NaTc, Sodium taurocholate, reference compound]
live cells with respect to the non-treated control (means ± S.E.M.) ([2]; 0.50%): 24.83 ± 11.86%

IC50 [3]: 3400 nM | improvement of HT-29 IC50 after verapamil treatment ([4]; 10 µM verapamil): > 2 fold | IC50 ([4]; Homo sapiens, HT-29, MTT, 72 h): 503 nM | IC50 [5]: 273 nM | IC50 [6]: 208 nM
Compound: COc1cc(C=Cc2ccc(N(C)C)cc2)cc(OC)c1OC [Compound 8a, N,N-dimethyl-4-(3,4,5-trimethoxystyryl)aniline]
IC50 [1]: 3400 nM | IC50 [7]: 102 to 503 nM
